Data published in US9044464B2, “No-releasing guanidine-coxib anti-cancer agents” (Euclises Pharmaceuticals, Inc., priority 2012, dated 2015).

Tested on: PGE2 levels
Assay: Rat Air-Pouch Model for Acute Inflammation (carrageenan challenge, exudate volume and PGE2 by ELISA)
Format: in vivo, Sprague-Dawley rats
Conditions: for Volume (mL), collected exudate volume, mean / PGE2 (pg/mL) in exudate, mean: 0.01 mmol/kg oral gavage 2 h before intra-pouch 1% carrageenan, exudate collected 4 h after carrageenan; for Volume (mL), collected exudate volume, mean: 5 rats/group, vehicle mean 5.7; for PGE2 (pg/mL) in exudate, mean: ELISA, vehicle mean 4357.7; for reduction in exudate PGE2 release / reduction in collected exudate volume: 0.01 mmol/kg oral pretreatment, versus vehicle; for reduction in collected exudate volume: significant
Description: A study of celecoxib release from Example Compound 5 is assessed by measurement of PGE2 levels, which are indicative of inflammatory response.
Animals: Sprague-Dawley rats (Charles River Laboratories, R #3234, PO #738990, male, 160-180 g) were received, individually examined, and housed in cages of five rats each. The rats were ear notched for identification purposes.
Compounds and dosing solutions: The vehicle was prepared by dissolving 40 g (2-hydroxypropyl)-β-cyclodextrin (HP-β-CD, Sigma, Cat. 332593, lot MKBJ5858V) in 160 mL sterile saline for injection, USP (Hospira, lot 26-801-FW) making a […] solution which was filter sterilized (0.2 μm, Nalgene, Cat. 151-4020, lot 1095610). A 1% carrageenan solution was prepared by dissolving […] (Fluka, Cat. 22049, lot 1318338) in hot 60 mL sterile saline for injection, USP. This solution was stored at 4-8° C. Test compounds were dissolved in DMSO (Fisher Scientific, Cat. D128-500, lot 874999) to make 75 mM stocks. 0.25 mL of compound DMSO stocks were mixed with 12.5 mL of HP-β-CD solution at 50° C. (maximum DMSO concentration was 2% of the final volume of vehicle). Final concentration of all test compounds was 1.5 mM and compounds were dosed within 2 hours of preparation at 0.01 mmol/kg ([…] of test compound per rat).
Day 0—Air pouch initiation: The rats were anesthetized in a biological cabinet, the nape of the neck was cleansed with 70% isopropanol (Butler Schein Animal Health, Cat. 002498, lot 29EMS07104547) followed by 1% povidone-iodine solution (Ricca Chemical Co., Cat. 3955-16, lot 2205469). Twenty mL of sterile (0.22 μm, Millipore, Cat. SLGP033RS, lot R2KA55925, exp 08/2015) air was injected subcutaneously (SC) using a 23G×1½ inch needle fixed to a 20 mL syringe. The rats were returned to routine housing. No adverse reactions were observed.
Day 3—Air pouch maintenance: The rats were anesthetized in a biological cabinet, the nape of the neck was cleansed with 70% isopropanol followed by 1% povidone-iodine solution. Ten mL of sterile air was injected SC using a 23G×1½ inch needle fixed to a 20 mL syringe. The rats were returned to routine housing in clean cages. No adverse reactions were observed.
Day 6—Compound administration and carrageenan insult: At commencement of the study, each rat was weighed and sorted into treatment groups of 5 rats/group based upon average weight. Each rat was dosed orally via gavage at 6.809 mL/kg (1.6 mL/235 g) with their respective test material/vehicle. Two hours after test material/vehicle administration, the rats were injected with 1.0 mL of the room temperature 1% carrageenan saline solution into the air pouch. Four hours after carrageenan injection, the rats were anesthetized and 5 mL of the exudate buffer was injected into the air pouch. The pouch was gently massaged, the exudate immediately removed, and exudate volume recorded. The exudate was collected in a serum separator tube on an ice bath. The exudates were centrifuged (refrigerated) and an aliquot of the supernatant was stored in a labeled Eppendorf tube at −80° C.
Termination of Study: Animals were euthanized via CO2 asphyxiation at the completion of the in-life portion of this study and carcasses were disposed of according to standard protocols.
Data analysis: The exudate samples were thawed to room temperature and assayed by ELISA for PGE2 (R&D Systems, Cat. KGE004B, lot 307711). Statistical significance of treatments on mean exudate volumes are determined by comparison of means for treatment groups with vehicle group. Mean cytokine concentrations and standard deviations are determined for each group. Statistical significance of treatments on cytokine concentrations are determined for each compound group compared to vehicle group. Statistical significance (p-value) was calculated vs control groups by Student's t-Test.

| SMILES | Volume (mL), collected exudate volume, mean | PGE2 (pg/mL) in exudate, mean | reduction in exudate PGE2 release | reduction in collected exudate volume |
| --- | --- | --- | --- | --- |
| Cc1ccc(-c2cc(C(F)(F)F)nn2-c2ccc(S(=O)(=O)NC(=O)[C@@H](N)CCCNC(=N)N)cc2)cc1 [Example 5, (S)-2-Amino-5-guanidino-N-((4-(5-(p-tolyl)-3-(trifluoromethyl)-1H-pyrazol-1-yl)phenyl)sulfonyl)pentanamide] | 4.3 mL | 896.0 pg/mL | 80% | 24% |
| Cc1ccc(-c2cc(C(F)(F)F)nn2-c2ccc(S(N)(=O)=O)cc2)cc1 [celecoxib, 4-[5-(4-Methylphenyl)-3-(trifluoromethyl)-1H-pyrazol-1-yl]benzenesulfonamide] | 4.6 mL | 907.1 pg/mL | 80% | 19% |
